From ChEMBL document CHEMBL5465560, “Selectivity Literature for EUbOPEN Chemogenomic Library” (2024)

Key:
[1] = molecular target: T1, Dual specificity mitogen-activated protein kinase kinase 6 (Homo sapiens) (UniProt P52564); assay: Selectivity interaction (KinomeScan (DiscoverX)) EUB0000229b MAP2K6; details: at 10 µM
T1 sequence (whole entry): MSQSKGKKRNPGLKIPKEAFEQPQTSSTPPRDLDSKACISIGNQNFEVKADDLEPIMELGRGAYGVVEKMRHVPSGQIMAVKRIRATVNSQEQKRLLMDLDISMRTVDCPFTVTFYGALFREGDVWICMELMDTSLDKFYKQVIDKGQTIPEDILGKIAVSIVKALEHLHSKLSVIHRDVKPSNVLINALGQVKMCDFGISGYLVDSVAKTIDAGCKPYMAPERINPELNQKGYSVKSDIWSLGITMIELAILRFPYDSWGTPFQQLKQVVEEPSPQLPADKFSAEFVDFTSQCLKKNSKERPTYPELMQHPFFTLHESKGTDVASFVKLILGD

[2] = molecular target: T2, Histone-lysine N-methyltransferase NSD3 (Homo sapiens) (UniProt Q9BZ95); assay: Selectivity interaction (PWWP, WD40, and Tudor domain panel (DSLS measurements, literature)) EUB0000270b NSD3
T2 sequence (whole entry): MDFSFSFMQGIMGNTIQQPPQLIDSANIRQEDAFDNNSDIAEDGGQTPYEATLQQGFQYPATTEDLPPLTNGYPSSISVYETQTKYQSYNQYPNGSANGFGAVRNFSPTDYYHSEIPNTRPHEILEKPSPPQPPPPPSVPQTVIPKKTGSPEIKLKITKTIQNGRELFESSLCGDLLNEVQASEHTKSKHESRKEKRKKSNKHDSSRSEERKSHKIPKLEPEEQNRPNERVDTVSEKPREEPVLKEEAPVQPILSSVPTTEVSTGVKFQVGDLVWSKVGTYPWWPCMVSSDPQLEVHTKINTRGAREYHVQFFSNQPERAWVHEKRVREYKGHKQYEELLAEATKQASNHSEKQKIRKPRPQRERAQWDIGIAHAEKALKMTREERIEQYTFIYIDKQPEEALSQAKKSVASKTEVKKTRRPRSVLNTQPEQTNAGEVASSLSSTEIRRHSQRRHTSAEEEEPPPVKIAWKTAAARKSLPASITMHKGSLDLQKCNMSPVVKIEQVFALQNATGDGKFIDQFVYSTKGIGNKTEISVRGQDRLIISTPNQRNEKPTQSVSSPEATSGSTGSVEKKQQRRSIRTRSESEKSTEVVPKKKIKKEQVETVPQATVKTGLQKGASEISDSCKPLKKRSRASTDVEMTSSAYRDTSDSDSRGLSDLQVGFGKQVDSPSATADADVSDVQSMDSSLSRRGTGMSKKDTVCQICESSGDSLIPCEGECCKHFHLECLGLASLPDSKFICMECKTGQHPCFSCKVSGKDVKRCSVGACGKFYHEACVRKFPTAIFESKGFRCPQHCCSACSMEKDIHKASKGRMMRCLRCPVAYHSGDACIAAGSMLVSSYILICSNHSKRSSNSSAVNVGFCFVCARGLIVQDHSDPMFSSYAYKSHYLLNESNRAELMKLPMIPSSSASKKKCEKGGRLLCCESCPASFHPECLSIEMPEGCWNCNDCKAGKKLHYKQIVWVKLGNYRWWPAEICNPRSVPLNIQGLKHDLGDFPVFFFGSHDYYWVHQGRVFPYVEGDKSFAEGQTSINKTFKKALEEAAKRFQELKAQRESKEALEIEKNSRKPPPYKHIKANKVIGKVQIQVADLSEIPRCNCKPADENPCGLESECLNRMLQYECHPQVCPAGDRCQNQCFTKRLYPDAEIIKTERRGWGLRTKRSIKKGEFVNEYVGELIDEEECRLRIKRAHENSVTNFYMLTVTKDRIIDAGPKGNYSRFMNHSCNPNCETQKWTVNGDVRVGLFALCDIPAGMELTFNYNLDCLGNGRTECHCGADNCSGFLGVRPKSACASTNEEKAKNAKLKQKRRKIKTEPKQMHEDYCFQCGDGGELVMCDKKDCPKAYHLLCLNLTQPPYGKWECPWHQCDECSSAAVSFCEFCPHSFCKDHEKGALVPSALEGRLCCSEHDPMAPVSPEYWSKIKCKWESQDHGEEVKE

[3] = molecular target: T3, Serine/threonine-protein kinase TAO1 (Homo sapiens) (UniProt Q7L7X3); assay: Selectivity interaction (ActivX KiNativ screen (kinase selectivity in THP-1 cell lysates)) EUB0000639a TAOK1; type: subcellular; details: lysate
T3 sequence (whole entry): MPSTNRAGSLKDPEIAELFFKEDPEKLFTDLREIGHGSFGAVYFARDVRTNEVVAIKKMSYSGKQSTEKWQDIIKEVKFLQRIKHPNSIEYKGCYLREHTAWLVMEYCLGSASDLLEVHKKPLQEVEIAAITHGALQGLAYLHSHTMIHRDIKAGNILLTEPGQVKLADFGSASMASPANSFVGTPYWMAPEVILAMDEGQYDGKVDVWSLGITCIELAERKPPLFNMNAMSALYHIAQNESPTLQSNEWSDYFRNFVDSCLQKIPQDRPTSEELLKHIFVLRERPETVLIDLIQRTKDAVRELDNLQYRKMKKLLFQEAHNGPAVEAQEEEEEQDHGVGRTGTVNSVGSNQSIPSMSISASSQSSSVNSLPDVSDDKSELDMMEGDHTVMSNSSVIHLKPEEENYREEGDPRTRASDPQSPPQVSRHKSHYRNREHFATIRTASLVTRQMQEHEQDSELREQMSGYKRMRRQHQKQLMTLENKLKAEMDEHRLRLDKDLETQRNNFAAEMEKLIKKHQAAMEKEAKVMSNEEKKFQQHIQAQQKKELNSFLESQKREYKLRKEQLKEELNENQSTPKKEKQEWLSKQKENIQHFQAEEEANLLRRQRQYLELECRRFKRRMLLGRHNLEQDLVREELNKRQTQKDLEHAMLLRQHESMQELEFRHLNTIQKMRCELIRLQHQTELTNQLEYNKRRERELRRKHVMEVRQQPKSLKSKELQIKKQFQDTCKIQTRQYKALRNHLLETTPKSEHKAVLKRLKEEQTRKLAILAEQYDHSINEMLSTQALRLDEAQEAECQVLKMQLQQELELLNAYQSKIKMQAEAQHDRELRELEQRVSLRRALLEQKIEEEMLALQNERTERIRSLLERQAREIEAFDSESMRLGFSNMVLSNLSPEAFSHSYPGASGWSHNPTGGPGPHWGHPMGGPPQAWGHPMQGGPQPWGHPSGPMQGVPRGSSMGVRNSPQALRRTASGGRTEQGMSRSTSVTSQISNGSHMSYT

[4] = molecular target: Casein kinase II subunit alpha (Homo sapiens, UniProt P68400); assay: Selectivity interaction (Ambit KINOMEscan and KiNATiv profiling in Jurkat cells) EUB0000090b CSNK2A1; type: cell-based; details: at 1 µM
Chain of Casein kinase II subunit alpha (P68400 whole entry, looked up): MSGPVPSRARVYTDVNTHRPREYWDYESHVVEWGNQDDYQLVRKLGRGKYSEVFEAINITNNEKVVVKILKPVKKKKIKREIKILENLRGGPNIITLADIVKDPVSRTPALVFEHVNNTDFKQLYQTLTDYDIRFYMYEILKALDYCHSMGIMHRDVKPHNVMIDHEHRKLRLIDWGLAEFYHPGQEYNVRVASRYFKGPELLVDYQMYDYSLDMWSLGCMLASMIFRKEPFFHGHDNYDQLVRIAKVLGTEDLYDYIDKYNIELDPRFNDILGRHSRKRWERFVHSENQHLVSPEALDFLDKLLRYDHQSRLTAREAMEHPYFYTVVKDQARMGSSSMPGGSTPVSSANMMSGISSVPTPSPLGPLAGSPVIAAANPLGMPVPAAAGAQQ

SMILES: COc1cc(N(C)c2ccnc3ccc(C(F)(F)F)cc23)cc(OC)c1OC
- % binding [1]: 75%

SMILES: Cc1cc(CN)cc(C)c1-c1ncn(C)c1-c1cncn1C
- dTagg [2]: 0.7 K

SMILES: CC[C@@H]1[C@H](F)C(=O)N[C@@H]1COc1nccc2cc(C(N)=O)c(OC)cc12 [ZIMLOVISERTIB]
- % of inhibition ([3]; at 0.01 µM): 6.6%
- % of inhibition ([3]; at 0.04 µM): -1.6%
- % of inhibition ([3]; at 0.2 µM): 6.9%
- % of inhibition ([3]; at 1 µM): 12.9%
- % of inhibition ([3]; at 5 µM): 41.7%

SMILES: CN(C)C/C=C/C(=O)Nc1ccc(C(=O)N2CCCC(Nc3ncc(Cl)c(-c4c[nH]c5ccccc45)n3)C2)cc1 (stereo not drawn)
- % of control [4]: 78%
